Assay results published in patent US20060211651A1, “Persulfated oligosaccharide acting on selectins and chemokine” (Taisho Pharmaceutical Co., Ltd., priority 2002, published 2006).

Experiments:
[1] = test system: P-selectin-Ig; experiment: Binding of biotinylated oligosaccharide fraction (streptavidin-alkaline phosphatase) to P-selectin-Ig; conditions: FIG. 7 panel D; absorbance at 620 nm
Experimental: (§1) First, each of oligosaccharides was biotinylated with biotin-LC-hydrazide at a reducing end. To each of the fraction a, the fraction c, the fraction e-1 and the fraction e-2 obtained in the above item (2), 125 mM EZ-link™ biotin-LC-hydrazide and 1M NaCNBH3 in dimethyl sulfoxide/acetic acid (7:3) were added. The resulting reaction mixture was incubated at 65° C. for 3 hours, and then incubated at 37° C. for 12.5 to 18.5 hours to biotinylate an oligosaccharide. Each of the resulting reaction products was subjected to Sephadex G-25 column as described above, to remove unreacted biotin-LC-hydrazide, thereby collecting the fraction containing a biotinylated oligosaccharide. Then, the resulting fraction was evaporated to dryness.
(§2) Then, a part of a fraction containing 16 pmol of each biotinylated oligosaccharide was dissolved in 0.5 ml of the buffer A, and thereafter, each of the resulting solutions and 1 μl (2 pmol) of streptavidin-conjugated alkaline phosphatase [manufactured by Promega] were incubated at 4° C. overnight.
(§3) Each of the resulting products was 3-fold diluted with the buffer A respectively. […] Binding was determined by measuring absorbance at 620 nm using Blue Phos™ substrate. […]

[2] = target: T1, γ-interferon inducible protein-10 (Homo sapiens, UniProt P02778); experiment: Binding of biotinylated oligosaccharide fraction (streptavidin-alkaline phosphatase) to IP-10; conditions: FIG. 7 panel D; absorbance at 620 nm
Experimental: as §1, §2, §3

[3] = target: T2, platelet factor 4 (Homo sapiens, UniProt P02776); experiment: Binding of biotinylated oligosaccharide fraction (streptavidin-alkaline phosphatase) to PF4; conditions: FIG. 7 panel D; absorbance at 620 nm
T2 sequence (P02776 32-101): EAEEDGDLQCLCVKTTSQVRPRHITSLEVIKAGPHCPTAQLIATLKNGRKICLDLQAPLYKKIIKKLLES
Experimental: as §1, §2, §3

[4] = test system: secondary lymphoid tissue chemokine; experiment: Binding of biotinylated oligosaccharide fraction (streptavidin-alkaline phosphatase) to SLC; conditions: FIG. 7 panel D; absorbance at 620 nm
Experimental: as §1, §2, §3

[5] = target: T3, L-selectin-Ig (Homo sapiens, UniProt P14151); experiment: Binding of biotinylated oligosaccharide fraction (streptavidin-alkaline phosphatase) to L-selectin-Ig; conditions: FIG. 7 panel D; absorbance at 620 nm
T3 construct: purchased R & D Systems Inc
T3 sequence (P14151 with tags, fused parts or gaps limits assumed): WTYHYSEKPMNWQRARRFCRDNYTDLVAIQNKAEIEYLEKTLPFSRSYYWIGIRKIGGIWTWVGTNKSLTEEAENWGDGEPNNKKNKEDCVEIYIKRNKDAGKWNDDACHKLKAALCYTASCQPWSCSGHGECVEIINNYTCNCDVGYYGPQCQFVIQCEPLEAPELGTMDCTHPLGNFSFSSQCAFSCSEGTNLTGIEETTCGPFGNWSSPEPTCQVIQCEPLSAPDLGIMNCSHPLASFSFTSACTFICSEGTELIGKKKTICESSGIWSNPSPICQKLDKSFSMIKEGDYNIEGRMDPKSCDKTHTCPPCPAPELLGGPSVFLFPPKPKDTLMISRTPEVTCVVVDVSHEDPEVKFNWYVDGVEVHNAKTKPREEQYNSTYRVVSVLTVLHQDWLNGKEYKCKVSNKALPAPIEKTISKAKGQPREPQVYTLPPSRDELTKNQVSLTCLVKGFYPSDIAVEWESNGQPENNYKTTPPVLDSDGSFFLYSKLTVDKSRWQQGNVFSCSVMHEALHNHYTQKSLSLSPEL
Experimental: as §1, §2, §3

[6] = target: T4, stromal cell-derived factor-1β (Homo sapiens, UniProt P48061); experiment: Binding of biotinylated oligosaccharide fraction (streptavidin-alkaline phosphatase) to SDF-1β; conditions: FIG. 7 panel D; absorbance at 620 nm
T4 construct: purchased Pepro Tech
Experimental: as §1, §2, §3

[7] = test system: anti-versican monoclonal antibody 2B1; experiment: Sandwich-type ELISA, versican binding to antibody 2B1; conditions: FIG. 4 panel B
Experimental: (§4) ACHN cells were cultured for 2 days in the presence or absence of 100 mM sodium chlorate in RPMI 1640 containing 10% by weight of bovine fetal serum. After the conditioned medium was removed, cells were further cultured for 4 days in a serum-free medium, EX-CELL 610 HSF [manufactured by JRH Bioscience] in the presence or absence of 100 mM sodium chlorate. The conditioned medium was recovered, and spun at 10,000×g at 4° C. for 15 minutes to obtain each of a sodium chlorate-treated conditioned medium and sodium chlorate-untreated conditioned medium.
(§5) Binding between each of the resulting low-sulfated versican and intact versican, and chemokine was examined by sandwich-type enzyme-linked immunosorbent assay. […]
(§6) A conditioned medium of sodium chlorate-treated ACHN cells or a conditioned medium of sodium chlorate-untreated ACHN cells was added to a well of the resulting plate, followed by incubation for 1 hour. […] Binding was determined by measuring absorbance at 620 nm using alkaline phosphatase-conjugated streptavidin and Blue Phos™ substrate. […]

[8] = target: T5, C-terminal truncated secondary lymphoid tissue chemokine (Homo sapiens, UniProt O00585); experiment: Sandwich-type ELISA, versican binding to SLC-T; conditions: FIG. 4 panel B
T5 construct: gift: Dr. Melissa Swoop Wills, Vertex Pharmaceutical Co
T5 sequence (O00585 24-102 limits assumed): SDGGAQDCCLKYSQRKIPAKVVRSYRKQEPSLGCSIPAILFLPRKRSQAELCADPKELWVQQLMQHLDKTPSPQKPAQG
Experimental: as §4, §5, §6

[9] = target: T6, stromal cell-derived factor-1α (Homo sapiens, UniProt P48061); experiment: Sandwich-type ELISA, versican binding to SDF-1α; conditions: FIG. 4 panel B
T6 construct: purchased Pepro Tech
Experimental: as §4, §5, §6

[10] = test system: CD44-Ig; experiment: Sandwich-type ELISA, versican binding to CD44-Ig; parameters: species or system human; conditions: FIG. 4 panel B
Sequence of CD44-Ig (P16070 21-178 limits assumed): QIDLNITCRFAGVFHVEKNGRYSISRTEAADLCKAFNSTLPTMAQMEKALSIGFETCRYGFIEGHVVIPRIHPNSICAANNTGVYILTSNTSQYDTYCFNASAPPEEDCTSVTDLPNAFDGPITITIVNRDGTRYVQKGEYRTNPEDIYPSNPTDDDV
Experimental: as §4, §5, §6

[11] = target: T2, platelet factor 4; experiment: Sandwich-type ELISA, versican binding to PF4; conditions: FIG. 4 panel B
Experimental: as §4, §5, §6

[12] = test system: secondary lymphoid tissue chemokine; experiment: Sandwich-type ELISA, versican binding to SLC; conditions: FIG. 4 panel B
Experimental: as §4, §5, §6

[13] = target: T3, L-selectin-Ig; experiment: Sandwich-type ELISA, versican binding to L-selectin-Ig; conditions: FIG. 4 panel B
Experimental: as §4, §5, §6

[14] = target: T4, stromal cell-derived factor-1β; experiment: Sandwich-type ELISA, versican binding to SDF-1β; conditions: FIG. 4 panel B
Experimental: as §4, §5, §6

[15] = test system: P-selectin-Ig; experiment: Sandwich-type ELISA, versican binding to P-selectin-Ig; conditions: FIG. 4 panel B
Experimental: as §4, §5, §6

[16] = target: T1, γ-interferon inducible protein-10; experiment: Sandwich-type ELISA, versican binding to IP-10; conditions: FIG. 4 panel B
Experimental: as §4, §5, §6

[17] = test system: CD44-Ig; experiment: Binding inhibition assay (ELISA), biotinylated versican to CD44-Ig, various concentrations; parameters: species or system human; conditions: FIG. 2 panel C
Experimental: (§7) Inhibition assay of binding between versican and each of L-selectin, P-selectin and CD44 was performed as follows. First, each well on a 96 well flat bottom microtiter plate (Coster EIA/RIA plate No. 3690) was coated with L-selectin-Ig (3 μg/ml), P-selectin-Ig (4 μg/ml) or CD44-Ig (0.25 μg/ml) by a conventional procedure. […] The plate was incubated at room temperature for 2 hours. Thereafter, the plate was washed with the buffer A, and enzyme-linked immunosorbent assay was performed in the same manner as described in Kawashima, H. et al. [J. Biol. Chem., 275, 35448-35456 (2000)]. Binding was determined by measuring absorbance at 620 nm using alkaline phosphatase-conjugated streptavidin and Blue Phos™ substrate.

[18] = test system: P-selectin-Ig; experiment: Binding inhibition assay (ELISA), biotinylated versican to P-selectin-Ig, various concentrations; conditions: dose-dependent, FIG. 2 panel B
Experimental: as §7

[19] = target: T3, L-selectin-Ig; experiment: Binding inhibition assay (ELISA), biotinylated versican to L-selectin-Ig, various concentrations; conditions: dose-dependent, FIG. 2 panel A
Experimental: as §7

[20] = test system: E-selectin-Ig; experiment: Immunoprecipitation of versican from ACHN conditioned medium with E-selectin-Ig; type: binding; conditions: FIG. 1 lanes 13 and 14
Experimental: ACHN cells were pre-incubated at 37° C. for 6 hours in RPMI 1640 containing 10% by weight of bovine fetal serum in the presence or absence of 30 mM sodium chlorate. A confluent monolayer of the resulting ACHN cells was labeled by incubation for 18 hours in the presence or absence of 30 mM sodium chlorate, in a medium of either of:
Immunoprecipitation was performed as follows, according to the method described in the publication of Kawashima, H. et al. [Int. Immunol., 11, 393-405 (1999); all teachings of which are hereby incorporated by reference] except that beads were washed using buffer A (0.05% Tween 20, 20 mM HEPES-NaOH, 0.15M NaCl, 1 mM CaCl2, 1 mM MgCl2, pH6.8).
Each of the antibody and the Ig chimera shown in FIG. 1 (equivalent to 10 μg) was coupled to Protein A-Sepharose column (equivalent to 10 μL) by a conventional method, to obtain antibody-coupled Protein A-Sepharose or Ig chimera-coupled Protein A-Sepharose. […]
Thereafter, the beads were washed with the buffer A, to obtain precipitates. The resulting precipitates were subjected to SDS-agarose-PAGE, and thereafter, signal ascribed to ^35S label on a gel was detected by autoradiography.

[21] = target: monomeric L-selectin; conditions: immobilized ligand; cited from earlier work

GlcAβ1-3GalNAc(4,6-O-disulfate)β1-4GlcAβ1-3GalNAc(4-O-sulfate) [fraction e-1]
binding of biotinylated oligosaccharide fraction to P-selectin-Ig [1]: did not bind
binding of biotinylated oligosaccharide fraction to γ-interferon inducible protein-10 [2]: did not bind
binding of biotinylated oligosaccharide fraction to platelet factor 4 [3]: moderately bound
binding of biotinylated oligosaccharide fraction to secondary lymphoid tissue chemokine [4]: did not bind
binding of biotinylated oligosaccharide fraction to L-selectin-Ig [5]: did not bind
binding of biotinylated oligosaccharide fraction to stromal cell-derived factor-1β [6]: did not bind

low-sulfated versican: versican from conditioned medium of ACHN cells treated with 100 mM sodium chlorate, mainly unsulfated CS/DS chain
binding to anti-versican monoclonal antibody 2B1 [7]: bound
binding to recombinant truncated-type secondary lymphoid tissue chemokine [8]: scarcely bound
binding to stromal cell-derived factor-1α [9]: did not bind
binding to CD44-Ig [10]: bound

intact versican: versican from conditioned medium of sodium chlorate-untreated ACHN cells
binding to platelet factor 4 [11]: remarkably bound
binding to anti-versican monoclonal antibody 2B1 [7]: bound
binding to secondary lymphoid tissue chemokine [12]: remarkably bound
binding to L-selectin-Ig [13]: bound
binding to stromal cell-derived factor-1β [14]: remarkably bound
binding to recombinant truncated-type secondary lymphoid tissue chemokine [8]: scarcely bound
binding to P-selectin-Ig [15]: bound
binding to γ-interferon inducible protein-10 [16]: remarkably bound
binding to stromal cell-derived factor-1α [9]: did not bind
binding to CD44-Ig [10]: bound

keratan sulfate
inhibition of binding between biotinylated versican and CD44-Ig [17]: not inhibited
inhibition of binding between biotinylated versican and P-selectin-Ig [18]: not inhibited
inhibition of binding between biotinylated versican and L-selectin-Ig [19]: not inhibited

unsulfated versican: versican from ACHN cells treated with 30 mM sodium chlorate
interaction with E-selectin-Ig [20]: did not interact

GlcAβ1-3GalNAc(4,6-O-disulfate)β1-4GlcAβ1-3GalNAc(4,6-O-disulfate) [fraction e-2]
binding of biotinylated oligosaccharide fraction to P-selectin-Ig [1]: bound
binding of biotinylated oligosaccharide fraction to γ-interferon inducible protein-10 [2]: bound
binding of biotinylated oligosaccharide fraction to secondary lymphoid tissue chemokine [4]: bound
binding of biotinylated oligosaccharide fraction to L-selectin-Ig [5]: bound
binding of biotinylated oligosaccharide fraction to stromal cell-derived factor-1β [6]: bound

B1: GlyCAM-1: known ligand of L-selectin (protein, UniProt Q02596 20-151, looked up)
Glycosylation-dependent cell …: LPGSKDELQMKTQPTDAIPAAQSTPTSYTSEESTSSKDLSKEPSIFREELISKDNVVIESTKPENQEAQDGLRSGSSQLEETTRPTTSAATTSEENLTKSSQTVEEELGKIIEGFVTGAEDIISGASRITKS
Kd [21]: 108 µM
association rate [21]: ≥ 10^5 M^−1s^−1
